One data set concerns E-coli CCARM 1229. The experiment in a line: microbe, parasite or virus in culture. Conditions: E-coli CCARM 1229, antibiotic-resistant. It counts as cell-based, Escherichia coli. The text has this: (§1) To investigate the antibacterial activity of the HPA3P2 peptide prepared by the method of Example 1, the inventors first measured the minimal inhibitory concentration (MIC) that is the minimum concentration of the peptide for the strain to remain as not-decomposed.
(§2) Particularly, to measure the antibacterial activity, the standard strains were obtained. For example, Gram-negative bacteria such as E. coli (KCTC 1682) and Pseudomonas aeruginosa (KCTC 1637), and Gram-positive bacteria such as Staphylococcus aureus (KCTC […]) and Bacillus subtilis (KCTC 1918) were provided from Gene Bank, Korea Research Institute of Bioscience & Biotechnology. In addition, a variety of the antibiotic-resistant strains such as Staphylococcus aureus (CCARM 3090, 3018, 3114, 3126) and E. coli (CCARM 1229, 1238) were distributed from the culture collection at Ewha Womans University. And Pseudomonas aeruginosa (1034, 3904, 4007, 4891) were obtained from the otitis media patients at Chonnam National University Hospital. Each strain was cultured in LB medium (1% bacto-trypton, 0.5% bacto-yeast extract, 1% NaCl; Sigma, USA) until the strain grew to mid-log phase. The strain was diluted with 1% bacto-peptone medium (Difco, USA) at the density of 5×10^5 cells/100 μl, which was then inoculated in micro-titrate plate (Nunc, USA). The peptide synthesized in Example 1 and the peptides in Table 1 were added to the plate (1/2 dilution from 96 well), followed by culture at 37° C. for 6 hours. OD620 was measured by using micro-titrate plate reader (Merck Elisa reader, Germany) to determine the MIC value of each strain.

A further data set relates to E. coli CCARM 1238. The experiment in a line: microbe, parasite or virus in culture. The class given is cell-based, Escherichia coli. Conditions: E. coli CCARM 1238, antibiotic-resistant.
From the text: as §1, §2

The test system of the next data set is S. aureus CCARM 3090. The experiment in a line: microbe, parasite or virus in culture. The settings on record: S. aureus CCARM 3090, antibiotic-resistant. The class given is cell-based, Staphylococcus aureus.
From the text: as §1, §2

In the next data set the test system is S. aureus CCARM 3018. The experiment in a line: microbe, parasite or virus in culture. The class given is cell-based, Staphylococcus aureus. The settings on record: S. aureus CCARM 3018, antibiotic-resistant.
From the text: as §1, §2

A further data set has as its system S. aureus CCARM 3114. The experiment in a line: microbe, parasite or virus in culture. It counts as cell-based, Staphylococcus aureus. Conditions: S. aureus CCARM 3114, antibiotic-resistant.
From the text: as §1, §2

Another data set has as its system S. aureus CCARM 3126. Briefly: microbe, parasite or virus in culture. The class given is cell-based, Staphylococcus aureus. Conditions: S. aureus CCARM 3126, antibiotic-resistant.
From the text: as §1, §2

The test system of the next data set is P. aeruginosa 4891. The experiment in a line: microbe, parasite or virus in culture. The class given is cell-based, Pseudomonas aeruginosa. Conditions: P. aeruginosa 4891, antibiotic-resistant, from otitis media patients.
From the text: as §1, §2

The next data set has as its system P. aeruginosa 3904. Briefly: microbe, parasite or virus in culture. The class given is cell-based, Pseudomonas aeruginosa. Conditions: P. aeruginosa 3904, antibiotic-resistant, from otitis media patients.
From the text: as §1, §2

The test system of another data set is P. aeruginosa 1034. Briefly: microbe, parasite or virus in culture. It counts as cell-based, Pseudomonas aeruginosa. Conditions: P. aeruginosa 1034, antibiotic-resistant, from otitis media patients.
From the text: as §1, §2

In another data set the test system is P. aeruginosa 4007. The experiment in a line: microbe, parasite or virus in culture. It counts as cell-based, Pseudomonas aeruginosa. Conditions: P. aeruginosa 4007, antibiotic-resistant, from otitis media patients.
From the text: as §1, §2

Data set [1] is described as follows: Cytotoxicity in normal cell line (MTT). Conditions: human, HaCaT cells (human keratinocyte cell line), read-out: EC50 (50% cytotoxicity inhibition concentration). It counts as cell-based, human. The protocol:
(§3) To investigate whether or not the peptides prepared in Example 1 had cytotoxicity in normal cell line, the inventors investigated cytotoxicity in the human keratinocyte HaCaT cell line (Dr. N E. Fusenig, Heidelberg, Germany).
(§4) Particularly, human keratinocyte HaCaT cells were cultured in DMEM (Dulbecco's Modified Eagle's Medium) supplemented with 10% FBS (Fetal Bovine Serum), which were then distributed in a 96-well plate at the density of 2×10^4 cells/well, followed by further culture for 24 hours. The peptides prepared in Example 1 were treated at different concentrations, followed by reaction in a 5% CO2 incubator for 24 hours. Upon completion of the culture, 20 μl of phosphate buffered saline (PBS) wherein MTT (Thiazolyl Blue Tetrazolium Bromide) was dissolved at the concentration of 5 mg/ml was added to each well, followed by culture for 4 hours. The supernatant was discarded. Then, the generated MTT crystal was dissolved in 200 μl of DMSO. OD560 was measured.

The test system of data set [2] is human keratinocyte HaCaT cell line. The experiment in a line: Cytotoxicity in normal cell line (MTT). The settings on record: HaCaT cells, 24 hours. It counts as cell-based. The protocol:
as §3, §4

Data set [3] concerns Bacillus subtilis (KCTC 1918). The class given is cell-based. The settings on record: 37° C., 6 hours, OD620.
From the text: as §1, §2

Data set [4] relates to Pseudomonas aeruginosa (KCTC 1637). It counts as cell-based. The settings on record: 37° C., 6 hours, OD620.
From the text: as §1, §2

The subject of data set [5] is Staphylococcus aureus (KCTC 1637). The class given is cell-based. Conditions: 37° C., 6 hours, OD620.
From the text: as §1, §2

In the next data set the test system is E. coli (KCTC 1682). It counts as cell-based. Conditions: Escherichia coli KCTC 1682; 37° C., 6 hours, OD620.
From the text: as §1, §2

In the next data set the test system is human erythrocytes. The experiment in a line: Hemolytic activity. It counts as cell-based. The settings on record: for HC10 / HC50: human erythrocytes 8% in PBS, 37° C., 1 hour; for HC10: first value of HC10/HC50 cell; for HC50: second value of HC10/HC50 cell; for hemolytic activity: human erythrocytes, up to 800 μM peptide. The protocol: To investigate whether or not the peptide HPA3P2 that has the folding structure as prepared in Example 1 had cytotoxicity, the hemolytic activity of the peptide having the folding structure was measured.
Particularly, human erythrocytes were diluted in PBS (pH 7.0) at the concentration of 8%, to which the peptides represented by SEQ. ID. […] Then, centrifugation was performed at 1,000 g. Hemoglobin included in the supernatant was measured by measuring OD414. To compare and measure the level of cell destruction, 1% triton X-100 (Sigma, USA) was added to the human erythrocytes, and then OD of the supernatant was measured. The cell destruction capacity of the said 1% triton X-100 was considered as 100%, based on which the erythrocyte destruction capacity of each peptide including the peptide of the invention and the peptides listed in Table 1 was calculated by the below mathematical formula 1. % hemolysis=(ODA−ODB/ODC−ODB)×100 [Mathematical Formula 1] In the above mathematical formula 1, ODA is the OD of the peptide solution measured at 414 nm, and ODB is the OD of PBS measured at 414 nm, and ODC is the OD of 1% triton X-100 measured at 414 nm.

The next data set has as its system E. coli cells. Briefly: SYTOX-Green fluorescence intensity in E. coli. The settings on record: E. coli 2×10^7 cells/ml, 1 μM SYTOX-Green, over time and peptide concentration. The class given is cell-based. The protocol:
The SYTOX-Green fluorescence and luminous intensity of the peptide prepared in Example 1 were measured over the time.
Particularly, E. coli cells were cultured in LB medium at 37° C. The cells were diluted in 10 mM sodium phosphate buffer at the density of 2×10^7 cells/ml. 1 μM of SYTOX-Green was treated to the cells, followed by reaction in a dark incubator for 15˜20 minutes. The comparative peptides (HPA3P(A) and Buporin-2(C)), and the experimental peptide HPA3P2(B) were treated at the minimum inhibition concentration. The increasing fluorescence intensity emitted from SYTOX-Green was measured (excitation wavelength: 484 nm, emission wavelength: 520 nm).

Several values for one entry are separate records, joined by “and”; a condition that tells them apart may be missing. Equal values may be shown once. Read-outs that look alike come from different tables or passages of the source. Ends that are not written are not given here.

Six molecules from patent US9463214B2, “Antibiotic peptide derived from helicobacter pylori ribosomal protein L1 and uses thereof” (INDUSTRY-ACADEMIC COOPERATION FOUNDATION, CHOSUN UNIVERSITY, priority 2013, dated 2016) can be followed below.

Take `CC1(C)S[C@@H]2[C@H](NC(=O)[C@H](N)c3ccccc3)C(=O)N2[C@H]1C(=O)O` [Ampicillin]: the MIC in the data set on E-coli CCARM 1229 (Escherichia coli, CCARM1229, read-out: MIC) was above 800 µM; in the data set with E. coli CCARM 1238 (Escherichia coli, CCARM1238, read-out: MIC), above 800 µM.

`CC[C@H]1OC(=O)[C@H](C)[C@@H](O[C@H]2C[C@@](C)(OC)[C@@H](O)[C@H](C)O2)[C@H](C)[C@@H](O[C@@H]2O[C@H](C)C[C@H](N(C)C)[C@H]2O)[C@](C)(O)C[C@@H](C)C(=O)[C@H](C)[C@@H](O)[C@]1(C)O` [Erythromycin]: the MIC against S. aureus CCARM 3090 (Staphylococcus aureus, CCARM3090) was above 800 µM; against S. aureus CCARM 3018 (Staphylococcus aureus, CCARM3018), above 800 µM; in the data set with S. aureus CCARM 3114 (Staphylococcus aureus, CCARM3114), above 800 µM; against S. aureus CCARM 3126 (Staphylococcus aureus, CCARM3126), above 800 µM.

For the molecule `CCN1CCN(C(=O)N[C@@H](C(=O)N[C@@H]2C(=O)N3[C@@H]2SC(C)(C)[C@@H]3C(=O)O)c2ccccc2)C(=O)C1=O` [Piperacillin], the MIC against P. aeruginosa 4891 (Pseudomonas aeruginosa), in the data set with P. aeruginosa 3904 (Pseudomonas aeruginosa), against P. aeruginosa 1034 (Pseudomonas aeruginosa) and with P. aeruginosa 4007 (Pseudomonas aeruginosa) was above 400 µM throughout.

“AKKVFKRLPKLFSKIWNWK-NH2 [HPA3P, AKKVFKRLPKLFSKIWNWK-NH2]”: the EC50 at 24 h in data set [1] came out at 381 µM. In addition, the “EC10 (10% cytotoxicity inhibition concentration)” value in data set [2] is 151.1 µM and 151.5 µM. For the same molecule, the “MIC Bs” value in data set [3] came out at 2 µM. In addition, the “MIC Pa” value in data set [4] worked out at 8 µM. Also, the “MIC Sa” value in data set [5] amounted to 16 µM. Besides, the “MIC Ec” value in the data set with E. coli (KCTC 1682) is 1 µM. In addition, the MIC is 1 µM in the data set with P. aeruginosa 4891; 1 µM in the data set with P. aeruginosa 3904; 1 µM in the data set with P. aeruginosa 1034; 1 µM in the data set on P. aeruginosa 4007; 0.5 to 1 µM in the data set on E-coli CCARM 1229; 0.5 to 1 µM against E. coli CCARM 1238. The MIC in the data set with S. aureus CCARM 3090, against S. aureus CCARM 3018, against S. aureus CCARM 3114 and in the data set with S. aureus CCARM 3126 was 1 µM in each case. The HC10 in the data set on human erythrocytes is >800/>800 μM. Moreover, the HC50 in the data set on human erythrocytes is given as >800/>800 μM. Also, the hemolytic activity result in the data set on human erythrocytes was “not observed”.

For “AKKVFKRLPKLPSKIWNWK-NH2 [HPA3P2, AKKVFKRLPKLPSKIWNWK-NH2]”, the “EC10 (10% cytotoxicity inhibition concentration)” value in data set [2] was found to be 180.5 µM. For the same molecule, the “MIC Bs” value in [3] is above 64 µM. Moreover, the “MIC Pa” value in data set [4] turned out to be 16 µM. The “MIC Sa” value in [5] was above 64 µM. Also, the “MIC Ec” value against E. coli (KCTC 1682) is 16 µM. For the same molecule, the MIC with P. aeruginosa 4891 is 1 µM; against P. aeruginosa 3904, 1 µM; against P. aeruginosa 1034, 1 µM; with P. aeruginosa 4007 it was 1 µM; against E-coli CCARM 1229, 0.5 to 1 µM; with E. coli CCARM 1238, 0.5 to 1 µM. Besides, the MIC in the data set with S. aureus CCARM 3090, against S. aureus CCARM 3018, against S. aureus CCARM 3114 and against S. aureus CCARM 3126 was 1 µM throughout. The HC10 with human erythrocytes is >800/>800 μM. Moreover, the HC50 with human erythrocytes is on record as >800/>800 μM. Also, in the data set with human erythrocytes, the hemolytic activity entry is “not observed”.

Regarding buforin-2, in the data set with E. coli cells, the “change of SYTOX-Green fluorescence intensity” value is given as “the fluorescence intensity is changed”.
